# System: pulmonary vascular resistance (PVR)
# Test: Phase 1b, patients with PAH or CTEPH, inhaled single doses, right heart catheterization: PVR and mPAP (C-4.4)
# Format: in vivo, human
# Description: Patients with PAH or CTEPH were treated in a clinical phase 1b study with escalating orally inhaled single* doses of 240 μg (2 capsules of 120 μg), 480 μg, 1000 μg, 2000 (2 capsules of 1000 μg) or 4000 μg (4 capsules of 1000 μg) of a dry powder of example 4 (see under D-1, e.g. tables 17 and 20), inserted into a handheld inhalation device, inhaled by deep inhalative breath into the deep parts of the lung. (*single dose means the administration of one dosage form/capsule as well as administration of two or more dosage forms/capsules simultaneously or consecutively within a short time period). The included patients had no background treatment with standard of care (SoC) medication for PAH or CTEPH (such as endothelin antagonists, prostanoids, phosphodiesterase type 5 inhibitor or soluble guanylate cyclase stimulators). Patients in this study underwent invasive right heart catheterization as medically indicated routine diagnostic. Primary objective of the study was to investigate the peak percent reduction from baseline in PVR. Patients had to have a baseline pulmonary artery pressure (mPAP) of ≥25 mmHg and a PVR of ≥400 dyn·sec·cm^−5 (5 Wood Units) and were not to show vaso-responsiveness to initial iNO inhalation testing to be included in the per protocol analysis. Plasma concentrations (pharmacokinetics) of the administered drug at several time points after administration were measured and safety and tolerability was assessed.
# The study is divided into two parts, Part A and Part B. In Part A escalating aforementioned single doses were administered to patients without background treatment with standard of care (SoC) medication for PAH or CTEPH (such as endothelin antagonists, prostanoids, phosphodiesterase type 5 inhibitor or soluble guanylate cyclase stimulators). In Part B, after finalization of Part A, a selected dose from PartA will be tested in further patients without background SoC treatment (group 1) and additionally in patients on monotherapy with SoC (group 2) and on dual combination therapy with SoC (group 3).
# The PVR is a derived parameter from parameters directly measured during the right heart catheterization procedure. The direct parameters included in the calculation are: mean pulmonary arterial pressure [mmHg](mPAP), pulmonary capillary wedge pressure [mmHg] (PCWP), and cardiac output [l/min] (CO). The PVR is calculated according to the formula: PVR [dyn*see*cm^−5]=80*(mPAP-PCWP)/CO.
# Overall 38 patients received a dose of dry powder of example 4. A total of 4 patients in each dose group were included into the per protocol set as planned (total 20 patients). A dose-dependent mean change of PVR from baseline could be clearly observed peaking in an enduring mean change of approximately −30% in the 2000 μg and 4000 μg groups (for details of PVR see FIG. 82 and table C4.4.1). The decreases in PVR were predominantly driven by decreases in pulmonary arterial pressure (for details of mean PAP see FIG. 83 and table C4.4.2). A mean peak change level of −20%—as the predefined relevant threshold level—was clearly exceeded peaking in the 2000 μg and 4000 μg groups (mean peak changes were: −21.0%, −16.1%, −25.9%, −38.1%, −36.3% for 240, 480, 1000, 2000, and 4000 μg, respectively). The magnitude of mean change in PVR of −30% from baseline was at the same level as for the inhaled competitor Treprostinil (Tyvaso®) after single administration in a historical comparison [Voswinckel et al, Journal of American College of Cardiology Vol. 48, No. 8, 2006 Oct. 17, 2006:1672-81]. However, the effect after example 4 application was advantageously sustained with no decrease in response until the end of the measurement period of 3 h (a measurement period of >3 h was technically not feasible for the patients with right heart catheter in the study). […] Increase of systemic cGMP (cyclic Guanosine Monophosphate) confirmed strong target engagement of sGC activation. […]
# [1] = 240 μg, 0 D 00 H 00 M (baseline)
# [2] = 480 μg, 0 D 00 H 00 M (baseline)
# [3] = 1000 μg, 0 D 00 H 00 M (baseline)
# [4] = 2000 μg, 0 D 00 H 00 M (baseline)
# [5] = 4000 μg, 0 D 00 H 00 M (baseline)
smiles,measurement,setting,value
"O=C(O)c1ccc(CCN(CCc2ccccc2OCc2ccc(-c3ccc(C(F)(F)F)cc3)cc2Cl)[C@H]2CCCc3nc(C(=O)O)ccc32)cc1 [example 4, (5S)-{[2-(4-Carboxyphenyl)ethyl][2-(2-{[3-chloro-4′-(trifluoromethyl)biphenyl-4-yl]methoxy}phenyl)-ethyl]amino}-5,6,7,8-tetrahydroquinoline-2-carboxylic acid]",mean peak change of PVR from baseline,240 μg,−21.0%
same,"mean pulmonary arterial pressure (mPAP), mean ± SD",[1],42.8 ± 11.1 mmHg
same,"pulmonary vascular resistance (PVR), mean ± SD",[1],788.338 ± 416.914 dyn·sec·cm^−5
same,"mean pulmonary arterial pressure (mPAP), mean ± SD","240 μg, 0 D 00 H 30 M",42.5 ± 11.0 mmHg
same,"pulmonary vascular resistance (PVR), mean ± SD","240 μg, 0 D 00 H 30 M",749.012 ± 398.928 dyn·sec·cm^−5
same,"mean pulmonary arterial pressure (mPAP), mean ± SD","240 μg, 0 D 01 H 00 M",44.3 ± 10.4 mmHg
same,"pulmonary vascular resistance (PVR), mean ± SD","240 μg, 0 D 01 H 00 M",734.427 ± 396.799 dyn·sec·cm^−5
same,"mean pulmonary arterial pressure (mPAP), mean ± SD","240 μg, 0 D 01 H 30 M",43.0 ± 8.0 mmHg
same,"pulmonary vascular resistance (PVR), mean ± SD","240 μg, 0 D 01 H 30 M",726.362 ± 364.099 dyn·sec·cm^−5
same,"mean pulmonary arterial pressure (mPAP), mean ± SD","240 μg, 0 D 02 H 00 M",39.5 ± 7.9 mmHg
same,"pulmonary vascular resistance (PVR), mean ± SD","240 μg, 0 D 02 H 00 M",710.844 ± 410.668 dyn·sec·cm^−5
same,"mean pulmonary arterial pressure (mPAP), mean ± SD","240 μg, 0 D 02 H 30 M",42.0 ± 6.5 mmHg
same,"pulmonary vascular resistance (PVR), mean ± SD","240 μg, 0 D 02 H 30 M",716.209 ± 419.311 dyn·sec·cm^−5
same,"mean pulmonary arterial pressure (mPAP), mean ± SD","240 μg, 0 D 03 H 00 M",39.0 ± 4.2 mmHg
same,"pulmonary vascular resistance (PVR), mean ± SD","240 μg, 0 D 03 H 00 M",657.829 ± 291.191 dyn·sec·cm^−5
same,mean peak change of PVR from baseline,480 μg,−16.1%
same,"mean pulmonary arterial pressure (mPAP), mean ± SD",[2],55.0 ± 8.6 mmHg
same,"pulmonary vascular resistance (PVR), mean ± SD",[2],1055.863 ± 317.077 dyn·sec·cm^−5
same,"mean pulmonary arterial pressure (mPAP), mean ± SD","480 μg, 0 D 00 H 30 M",52.3 ± 8.4 mmHg
same,"pulmonary vascular resistance (PVR), mean ± SD","480 μg, 0 D 00 H 30 M",1003.264 ± 300.639 dyn·sec·cm^−5
same,"mean pulmonary arterial pressure (mPAP), mean ± SD","480 μg, 0 D 01 H 00 M",53.8 ± 9.1 mmHg
same,"pulmonary vascular resistance (PVR), mean ± SD","480 μg, 0 D 01 H 00 M",1007.504 ± 290.883 dyn·sec·cm^−5
same,"mean pulmonary arterial pressure (mPAP), mean ± SD","480 μg, 0 D 01 H 30 M",55.0 ± 8.0 mmHg
same,"pulmonary vascular resistance (PVR), mean ± SD","480 μg, 0 D 01 H 30 M",1031.647 ± 252.210 dyn·sec·cm^−5
same,"mean pulmonary arterial pressure (mPAP), mean ± SD","480 μg, 0 D 02 H 00 M",52.5 ± 7.9 mmHg
same,"pulmonary vascular resistance (PVR), mean ± SD","480 μg, 0 D 02 H 00 M",908.704 ± 252.569 dyn·sec·cm^−5
same,"mean pulmonary arterial pressure (mPAP), mean ± SD","480 μg, 0 D 02 H 30 M",54.0 ± 9.7 mmHg
same,"pulmonary vascular resistance (PVR), mean ± SD","480 μg, 0 D 02 H 30 M",1038.344 ± 263.837 dyn·sec·cm^−5
same,"mean pulmonary arterial pressure (mPAP), mean ± SD","480 μg, 0 D 03 H 00 M",56.0 ± 11.1 mmHg
same,"pulmonary vascular resistance (PVR), mean ± SD","480 μg, 0 D 03 H 00 M",909.265 ± 259.510 dyn·sec·cm^−5
same,mean peak change of PVR from baseline,1000 μg,−25.9%
same,"mean pulmonary arterial pressure (mPAP), mean ± SD",[3],34.3 ± 4.9 mmHg
same,"pulmonary vascular resistance (PVR), mean ± SD",[3],608.898 ± 135.153 dyn·sec·cm^−5
same,"mean pulmonary arterial pressure (mPAP), mean ± SD","1000 μg, 0 D 00 H 30 M",33.8 ± 7.5 mmHg
same,"pulmonary vascular resistance (PVR), mean ± SD","1000 μg, 0 D 00 H 30 M",645.387 ± 211.946 dyn·sec·cm^−5
same,"mean pulmonary arterial pressure (mPAP), mean ± SD","1000 μg, 0 D 01 H 00 M",31.8 ± 7.4 mmHg
same,"pulmonary vascular resistance (PVR), mean ± SD","1000 μg, 0 D 01 H 00 M",558.324 ± 169.860 dyn·sec·cm^−5
same,"mean pulmonary arterial pressure (mPAP), mean ± SD","1000 μg, 0 D 01 H […]",32.0 ± 8.9 mmHg
same,"pulmonary vascular resistance (PVR), mean ± SD","1000 μg, 0 D 01 H […]",542.130 ± 187.227 dyn·sec·cm^−5
same,"mean pulmonary arterial pressure (mPAP), mean ± SD","1000 μg, 0 D 02 H 00 M",32.3 ± 9.0 mmHg
same,"pulmonary vascular resistance (PVR), mean ± SD","1000 μg, 0 D 02 H 00 M",487.951 ± 144.546 dyn·sec·cm^−5
same,"mean pulmonary arterial pressure (mPAP), mean ± SD","1000 μg, 0 D 02 H […]",33.5 ± 10.7 mmHg
same,"pulmonary vascular resistance (PVR), mean ± SD","1000 μg, 0 D 02 H […]",537.812 ± 204.640 dyn·sec·cm^−5
same,"pulmonary vascular resistance (PVR), mean ± SD","1000 μg, 0 D 03 H 00 M",535.636 ± 235.786 dyn·sec·cm^−5
same,mean peak change of PVR from baseline,2000 μg,−38.1%
same,mean change of PVR from baseline,"2000 μg and 4000 μg groups, single inhaled dose, per protocol set N=4 each",approximately −30%
same,"mean pulmonary arterial pressure (mPAP), mean ± SD",[4],33.5 ± 3.4 mmHg
same,"pulmonary vascular resistance (PVR), mean ± SD",[4],468.608 ± 20.537 dyn·sec·cm^−5
same,"mean pulmonary arterial pressure (mPAP), mean ± SD","2000 μg, 0 D 00 H 30 M",33.3 ± 6.3 mmHg
same,"pulmonary vascular resistance (PVR), mean ± SD","2000 μg, 0 D 00 H 30 M",464.586 ± 58.200 dyn·sec·cm^−5
same,"mean pulmonary arterial pressure (mPAP), mean ± SD","2000 μg, 0 D 01 H 00 M",30.8 ± 5.6 mmHg
same,"pulmonary vascular resistance (PVR), mean ± SD","2000 μg, 0 D 01 H 00 M",421.730 ± 81.602 dyn·sec·cm^−5
same,"mean pulmonary arterial pressure (mPAP), mean ± SD","2000 μg, 0 D 01 H 30 M",28.5 ± 7.3 mmHg
same,"pulmonary vascular resistance (PVR), mean ± SD","2000 μg, 0 D 01 H 30 M",340.782 ± 82.566 dyn·sec·cm^−5
same,"mean pulmonary arterial pressure (mPAP), mean ± SD","2000 μg, 0 D 02 H 00 M",27.0 ± 6.1 mmHg
same,"pulmonary vascular resistance (PVR), mean ± SD","2000 μg, 0 D 02 H 00 M",339.924 ± 105.884 dyn·sec·cm^−5
same,"mean pulmonary arterial pressure (mPAP), mean ± SD","2000 μg, 0 D 02 H 30 M",27.3 ± 6.0 mmHg
same,"pulmonary vascular resistance (PVR), mean ± SD","2000 μg, 0 D 02 H 30 M",338.404 ± 87.381 dyn·sec·cm^−5
same,"mean pulmonary arterial pressure (mPAP), mean ± SD","2000 μg, 0 D 03 H 00 M",27.5 ± 5.2 mmHg
same,"pulmonary vascular resistance (PVR), mean ± SD","2000 μg, 0 D 03 H 00 M",327.284 ± 25.882 dyn·sec·cm^−5
same,mean peak change of PVR from baseline,4000 μg,−36.3%
same,"mean pulmonary arterial pressure (mPAP), mean ± SD",[5],46.0 ± 8.1 mmHg
same,"pulmonary vascular resistance (PVR), mean ± SD",[5],713.998 ± 117.204 dyn·sec·cm^−5
same,"mean pulmonary arterial pressure (mPAP), mean ± SD","4000 μg, 0 D 00 H 30 M",43.0 ± 4.6 mmHg
same,"pulmonary vascular resistance (PVR), mean ± SD","4000 μg, 0 D 00 H 30 M",616.894 ± 97.774 dyn·sec·cm^−5
same,"mean pulmonary arterial pressure (mPAP), mean ± SD","4000 μg, 0 D 01 H 00 M",41.3 ± 4.6 mmHg
same,"pulmonary vascular resistance (PVR), mean ± SD","4000 μg, 0 D 01 H 00 M",542.417 ± 97.103 dyn·sec·cm^−5
same,"mean pulmonary arterial pressure (mPAP), mean ± SD","4000 μg, 0 D 01 H 30 M",40.3 ± 5.1 mmHg
same,"pulmonary vascular resistance (PVR), mean ± SD","4000 μg, 0 D 01 H 30 M",573.812 ± 123.865 dyn·sec·cm^−5
same,"mean pulmonary arterial pressure (mPAP), mean ± SD","4000 μg, 0 D 02 H 00 M",40.0 ± 5.3 mmHg
same,"pulmonary vascular resistance (PVR), mean ± SD","4000 μg, 0 D 02 H 00 M",501.07 ± 97.979 dyn·sec·cm^−5
same,"mean pulmonary arterial pressure (mPAP), mean ± SD","4000 μg, 0 D 02 H […]",39.8 ± 3.0 mmHg
same,"pulmonary vascular resistance (PVR), mean ± SD","4000 μg, 0 D 02 H […]",526.648 ± 144.679 dyn·sec·cm^−5
same,"mean pulmonary arterial pressure (mPAP), mean ± SD","4000 μg, 0 D 03 H 00 M",39.8 ± 4.1 mmHg
same,"pulmonary vascular resistance (PVR), mean ± SD","4000 μg, 0 D 03 H 00 M",493.103 ± 130.480 dyn·sec·cm^−5
same,duration of sustained PVR effect with no decrease in response,end of the measurement period,≥ 3 h
same,tolerability,single inhaled doses 240 to 4000 μg,Overall good tolerability was seen including the highest dose of 4000 μg
